Results from patent US12053452B2 (priority 2021, dated 2024).
Entries after “also recorded” stand apart in the source; their conditions may differ. Where a name gives a salt, the structure may show the parent alone. Read-outs that look alike come from different tables or passages of the source.

Tests used:
[1] = human urine, after racemic MDMA; cited from earlier work
[2] = tested on: BTBR mice; experiment: Social preference procedure: compartment entries (proxy for locomotor stimulant effects), BTBR; format: in vivo
Procedure: (§1) This assay was conducted in adult male C57 and BTBR mice (n=6 per group) in a dedicated conditioning room where ambient light, sound, and human contact were tightly controlled. Social preference chambers consist of two polycarbonate boxes (13.5 cm wide×22.5 cm tall×31.0 cm deep), floored with rough-textured black ABS plastic, and connected to one another by a 1.25″ PVC T-junction. An infrared photobeam emitter/detector array is mounted at each intersection of the T-junction and each preference compartment, and as a mouse traversed the apparatus, it would break the photobeam upon entry to or exit from each preference compartment. Beam breaks started or stopped a counter on an interfaced computer, allowing automated collection of time spent in each compartment. At the end of each test, data were reported as time (in seconds) spent in each compartment, the number of entries into each compartment, and the average time spent in each compartment following an entry. Social preference tests were conducted in an iterative manner, with each test subject completing four distinct phases as described below. Between testing sessions, chambers were sanitized by wiping the insides with a disinfectant product provided by the UAMS Department of Laboratory Animal Medicine. At the end of the week (upon completion of all phases of the procedure), each apparatus was disassembled and all parts were sanitized. No food or water were available during social preference sessions, but were available in the home cage immediately afterwards.
(§2) Quantification of total entries into the preference compartments provided a proxy measurement for locomotor stimulant effects of the various doses of the various test drugs. This established a limit to the drug doses that can be tested in the social preference procedure, as induction of locomotor stimulant effects confounds preference assessments (because mice stop attending to the social stimuli in each compartment and instead spend their time engaged in locomotor behavior.) Motor activity varied across the distinct phases of social preference testing, in part because the habituation session is twice as long (30 minutes) as the novelty, sociability, and social novelty tests (15 minutes each), but also because mice emitted high levels of exploratory behavior in novel environments. Thus, as familiarity with the test apparatus increased over successive exposures to the chambers, the number of entries decreased.
(§3) (Note that entries were collected for every test, but drug effects on entries during earlier phases may be less reliable due to the confounding influence of changing familiarity with the apparatus across phases.)

[3] = tested on: BTBR mice; experiment: Social novelty preference test, BTBR (autism spectrum disorder model); format: in vivo; conditions: in vivo mice models of autism spectrum disorder (BTBR)
Procedure: as §1
A single social novelty preference session occurred the day after the sociability test, where one compartment contained a wire mesh cup with the same NIH Swiss mouse from the previous day inside (referred to now as the “familiar” mouse) while the other compartment contained a new male NIH Swiss stranger mouse inside the cup which previously contained the dummy mouse during the sociability test. […]

[4] = tested on: C57 mice; experiment: Sociability test, C57; format: in vivo
Procedure: as §1
A single sociability session occurred the day after the novelty preference test, where one compartment contained a wire mesh cup with a dummy mouse inside while the other compartment contained a male NIH Swiss stranger mouse inside the previously empty cup. […] The position of the dummy mouse (left or right compartment) remained the same for each subject as during the novelty test the day before, thereby counterbalancing the position of the stranger mouse across subjects. NIH Swiss stranger mice were similar in mass and appearance to the dummy PVC mice, and were housed separately from the experimental subjects (C57 and BTBR mice) in the colony facility. The first time the experimental subjects ever encountered the stranger mice was when they entered the compartment where they were contained. During this session, mice were weighed, administered the same injection as the day before, and returned to their home cage for a 30 min pretreatment period. Mice were then introduced into the T-junction and allowed to explore both preference compartments for 15 minutes. Sociability tests always occurred on Wednesdays or Thursdays to prevent any weekend testing.

[5] = tested on: C57 mice; experiment: Novelty preference test, C57; format: in vivo
Procedure: as §1
A single novelty preference session occurred the day after the habituation test, where one compartment contained an empty wire mesh cup and the other compartment contained an identical wire mesh cup with a novel dummy mouse inside. The position of the dummy mouse (left or right compartment) was counterbalanced across subjects. Dummy mice were constructed from 2.5″ lengths of white ¾″ PVC pipe, with a zip tie attached to one end (to mimic a tail) and two red dots drawn on the other end (to mimic eyes.) During this session, mice were weighed, administered an injection, and returned to their home cage for a 30 min pretreatment period. Mice were then introduced into the T-junction and allowed to explore both preference compartments for 15 minutes. These tests were conducted as a procedural control to ensure that any observed drug effects were not simply due to enhancement of the innate novelty preference of mice. Novelty preference sessions always occurred on Tuesdays or Wednesdays to prevent any weekend testing.

[6] = tested on: C57 mice; conditions: mouse, in vivo; for locomotor activity: ip
[7] = tested on: BTBR mice; experiment: Radiotelemetry of core temperature, BTBR; format: in vivo
Procedure: (§4) The radiotelemetry assay was conducted in adult male C57 and BTBR mice (n=6 per group) in a dedicated testing room where ambient light, sound, and human contact were tightly controlled.
(§5) Prior to surgical implantation of radiotelemetry probes, mice received 3 mg/kg meloxicam (IP), and anesthesia was induced with 4% inhaled isoflurane and maintained with 1-3% isoflurane (as needed) throughout the procedure at a flow rate of 1.5 litres/minute. The abdominal area of each animal was treated with depilatory cream, then sanitized with 3 alternating scrubs with iodine and alcohol. A rostral-caudal cut approximately 1.5 cm in length was made with sterile skin scissors, providing access to the intraperitoneal cavity. A cylindrical glass-encapsulated radiotelemetry probe (model ER-4000 E-Mitter, Mini Mitter, Bend, OR, USA) was then inserted. These probes measure 15.5 mm×6.5 mm and weigh approximately 1 gram. Incisions were closed (skin layer and muscle layer separately) using reverse cutting 5-0 Vicryl absorbable sutures for the muscle layer and 5-0 nylon suture material for the skin layer. Surgeries were carried out at least 7 days before initiation of experimental conditions, allowing time for incisions to heal and for animals to recover normal body weights. Following surgery, all implanted mice were individually housed in Plexiglas cages within the telemetry room for the duration of all experiments. Implanted transmitters produce activity- and temperature-modulated signals which are sent to a receiver (model ER-4000 Receiver, Mini Mitter Co., Inc.) underneath each cage. Following use, telemetry probes were removed from carcasses, wiped with alcohol swabs, and stored in the disinfectant solution until re-use.
(§6) At least 7 days after surgical implantation of radiotelemetry probes, mice in their individual home cages were placed atop a telemetry energizer/receiver, which powered probes and transmitted their data to an interfaced computer. Upon initiation of an experimental session, the computer collected two data updates from the probes at 5 min intervals: core temperature (in ° C.) on one channel, and locomotor counts (in arbitrary units, depending on the relative position of the probe atop the receiver) on the other. After at least 60 minutes of baseline data collection, mice were removed from their cages, injected with saline or a given dose of a specific drug, then returned to the home cage 24 hours of data collection.
(§7) Food and water were always freely available in the home cage. Mice were injected with ascending doses of a given drug, with at least 48 hours separating doses. Because there are few studies of drug effects in BTBR mice, the first drug dose tested occasionally elicited unexpectedly large locomotor effects in these animals. In these cases, smaller drug doses were tested next, after a washout period of at least one full day.

[8] = tested on: C57 mice; experiment: Radiotelemetry of core temperature, C57; format: in vivo
Procedure: as §4, §5, §6, §7

[9] = tested on: C57 mice; experiment: Social novelty preference test, C57; format: in vivo
Procedure: as §1
A single social novelty preference session occurred the day after the sociability test, where one compartment contained a wire mesh cup with the same NIH Swiss mouse from the previous day inside (referred to now as the “familiar” mouse) while the other compartment contained a new male NIH Swiss stranger mouse inside the cup which previously contained the dummy mouse during the sociability test. […] The position of the now familiar NIH Swiss mouse (left or right compartment) remained the same for each subject as during the sociability test the day before, thereby counterbalancing the position of the new NIH Swiss stranger mouse across subjects. As before, the new NIH Swiss stranger mice were housed separately from the experimental subjects (C57 and BTBR mice) in the colony facility, and the first time the experimental subjects ever encountered them was when they entered the compartment where they were contained. During this session, mice were weighed, administered the same injection as the day before, and returned to their home cage for a 30 min pretreatment period. Mice were then introduced into the T-junction and allowed to explore both preference compartments for 15 minutes. Social novelty tests always occurred on Thursdays or Fridays to prevent any weekend testing.

[10] = tested on: BTBR mice; experiment: Radiotelemetry of locomotor activity, BTBR; format: in vivo; conditions: 0 to 240 minutes
Procedure: as §4, §5, §6, §7

[11] = tested on: C57 mice; experiment: Social preference procedure: compartment entries (proxy for locomotor stimulant effects), C57; format: in vivo; conditions: 10 mg/kg IP, social novelty test, 10 mg/kg
Procedure: as §1, §2, §3

## CC(N)Cc1ccc2c(c1)OCO2 (racemic) [MDA, (±)-3,4-methylenedioxyamphetmaine]
[1]
  enantiomer with higher Cmax: S-enantiomers were higher

## CNC(C)Cc1ccc(OC2OC(C(=O)O)C(O)C(O)C2O)c(OC)c1 (stereo not shown) [HMMA glucuronide]
[1]
  enantiomer with higher Cmax: S-enantiomers were higher

## CNC(C)Cc1ccc(OS(=O)(=O)O)c(OC)c1 (stereo not shown) [HMMA sulfate]
[1]
  enantiomer with higher Cmax: Higher R-enantiomer Cmax

## CN[C@H](C)Cc1ccc2c(c1)OCO2 [R(−)-MDMA, (2R)-1-(1,3-benzodioxol-5-yl)-N-methylpropan-2-amine]
[2]; 3.0 mg/kg IP, social novelty test, 3 mg/kg
  compartment entries (locomotor stimulant effect): reduced entries; also recorded: suppresses the locomotor activity
[2]; all tested doses IP
  compartment entries (locomotor stimulant effect): do not influence locomotor activity
[3]
  pro-social behaviour: promotes pro-social behaviour
[4]; 3.0 mg/kg IP
  sociability (time spent with the stranger mouse vs dummy): elicit significant effects on sociability
[4]; 10.0 mg/kg IP
  sociability (time spent with the stranger mouse vs dummy): largest effect on sociability
[5]; 10.0 mg/kg IP
  novelty preference (time spent with the dummy mouse): had no effects on locomotor activity (see FIG. 4) or novelty preference
[5]; various doses IP
  novelty preference (time spent with the dummy mouse): no systematic effects on novelty preference
[6]; 10 mg/kg
  locomotor activity: did elicit significant motor stimulation
[6]; 30 mg/kg
  locomotor activity: did not elicit significant motor stimulation
[7]; 30 mg/kg IP
  effect on core temperature: no significant effects on core temperature were observed
[7]; various/increasing doses IP
  effect on core temperature: did not elicit significant effects on core temperature
[8]; 10 mg/kg IP
  effect on core temperature: neither of the mixtures (e.g., exemplary composition 2(i)) nor pure R(−)-MDMA (e.g., exemplary composition 7) elicited significant effects on the core temperature
[8]; 30 mg/kg IP
  effect on core temperature: neither of the mixtures nor pure R(−)-MDMA elicited significant effects on the core temperature
[9]; 3.0 mg/kg IP
  social novelty preference (new stranger mouse vs familiar mouse): elicit significant effects on sociability
[9]; 10 mg/kg IP, 10 mg/kg
  social novelty preference (new stranger mouse vs familiar mouse): largest effect on social novelty preference
[9]; 10 mg/kg IP, listed as R-MDMA, 10 mg/kg
  social novelty preference (new stranger mouse vs familiar mouse): strong preference for the new stranger mouse
[10]; 10 mg/kg IP
  locomotor activity: no significant motor stimulation was observed
[10]; 30 mg/kg IP
  locomotor activity: no significant motor stimulation was observed
[11]
  compartment entries (locomotor stimulant effect): did not increase compartment entries; also recorded: had no effects on locomotor activity
[11]; listed as R-(−) MDMA
  compartment entries (locomotor stimulant effect): no stimulant effect on the motor activity

## CN[C@@H](C)Cc1ccccc1 [S(+)-methamphetamine, S-methamphetamine]
[6]
  locomotor activity, strain comparison C57 vs BTBR: no significant strain differences observed at any dose
  locomotor effects vs saline: effects were not different from saline

## CN[C@@H](C)Cc1ccccc1 [methamphetamine]
[4]; various doses IP
  sociability (time spent with the stranger mouse vs dummy): no systematic effects on sociability
[5]; various doses IP
  novelty preference (time spent with the dummy mouse): no systematic effects on novelty preference
[9]; various doses IP
  social novelty preference (new stranger mouse vs familiar mouse): no systematic effects on social novelty preference
